≈ marks a conversion by molar mass, not a printed value.
Tests used:
Format in all cases: functional
Staphylococcus aureus [1] = assay: Antibacterial activity against Staphylococcus aureus 26003 by CLSI agar microdilution method
Streptococcus pneumoniae [2] = assay: Antibacterial activity against Streptococcus pneumoniae 31002 by CLSI agar microdilution method
Staphylococcus = assay: Antibacterial activity against Staphylococcus albus 26101 by CLSI agar microdilution method
Enterococcus faecium [3] = assay: Antibacterial activity against Enterococcus faecium 32220 by CLSI agar microdilution method
Streptococcus = assay: Antibacterial activity against Streptococcus gamma 32206 by CLSI agar microdilution method
[4] = tested on: Staphylococcus epidermidis; assay: Antibacterial activity against Staphylococcus epidermidis 26069 by CLSI agar microdilution method
Staphylococcus aureus [5] = assay: microbe, parasite or virus in culture; details: ATCC 25923
Description: Antibacterial activity against methicillin-sensitive Staphylococcus aureus ATCC 25923 by CLSI agar microdilution method

Staphylococcus aureus [6] = assay: microbe, parasite or virus in culture; details: ATCC 33591
Description: Antibacterial activity against methicillin-resistant Staphylococcus aureus ATCC 33591 by CLSI agar microdilution method

Enterococcus faecalis [7] = assay: microbe, parasite or virus in culture; details: ATCC 29212
Description: Antibacterial activity against vancomycin-sensitive Enterococcus faecalis ATCC 29212 by CLSI agar microdilution method

Enterococcus faecalis [8] = assay: microbe, parasite or virus in culture; details: ATCC 51299
Enterococcus faecium [9] = assay: Antibacterial activity against vancomycin-sensitive Enterococcus faecium ATCC 35667 by CLSI agar microdilution method
Enterococcus faecium [10] = assay: Antibacterial activity against vancomycin-resistant Enterococcus faecium MEFA 0039 by CLSI agar microdilution method
Streptococcus pneumoniae [11] = assay: Antibacterial activity against penicillin-intermediate Streptococcus pneumoniae ATCC 49619 by CLSI broth microdilution method
Streptococcus pneumoniae [12] = assay: Antibacterial activity against penicillin-resistant Streptococcus pneumoniae MSPN 0003 by CLSI broth microdilution method
Enterococcus faecium [13] = assay: Antibacterial activity against vancomycin-sensitive Enterococcus faecium ATCC 35667 by CLSI agar microdilution method relative to LYV07ww01
Enterococcus faecalis [14] = assay: Antibacterial activity against vancomycin-resistant Enterococcus faecalis ATCC 51299 by CLSI agar microdilution method relative to vancomycin

Structure (SMILES) | MIC (Staphylococcus aureus [1]) [µg/mL] | MIC (Streptococcus pneumoniae [2]) [µg/mL] | MIC (Staphylococcus) [µg/mL] | MIC (Enterococcus faecium [3]) [µg/mL] | MIC (Streptococcus) [µg/mL] | MIC [4] [µg/mL] | MIC (Staphylococcus aureus [5]) [µg/mL] | MIC (Staphylococcus aureus [6]) [µg/mL] | MIC (Enterococcus faecalis [7]) [µg/mL] | MIC (Enterococcus faecalis [8]) [µg/mL] | MIC (Enterococcus faecium [9]) [µg/mL] | MIC (Enterococcus faecium [10]) [µg/mL] | MIC (Streptococcus pneumoniae [11]) [µg/mL] | MIC (Streptococcus pneumoniae [12]) [µg/mL] | fold change (FC) (Enterococcus faecium [13]) | fold change (FC) (Enterococcus faecalis [14])
CN[C@H](CC(C)C)C(=O)N[C@H]1C(=O)N[C@@H](CC(N)=O)C(=O)N[C@H]2C(=O)N[C@H]3C(=O)N[C@H](C(=O)N[C@@H](C(=O)O)c4cc(O)cc(O)c4-c4cc3ccc4O)[C@H](O[C@H]3C[C@](C)(N)[C@H](O)[C@H](C)O3)c3ccc(c(Cl)c3)Oc3cc2cc(c3O[C@@H]2O[C@H](CO)[C@@H](O)[C@H](O)[C@H]2O[C@H]2C[C@](C)(NCc3ccc(C(C)C)cc3)[C@H](O)[C@H](C)O2)Oc2ccc(cc2Cl)[C@H]1O | 1.56 (≈ 0.905 µM) | 0.78 (≈ 0.452 µM) | 1.56 (≈ 0.905 µM) | 1.56 (≈ 0.905 µM) | 1.56 (≈ 0.905 µM) | 6.25 (≈ 3.62 µM) | 1 (≈ 0.58 µM) | 0.5 (≈ 0.29 µM) | 0.5 (≈ 0.29 µM) | 0.5 (≈ 0.29 µM) | ≤ 0.031 | 2 (≈ 1.16 µM) | ≤ 0.031 | ≤ 0.031 | 4 | 4
CCCCN[C@@]1(C)C[C@H](O[C@H]2[C@H](Oc3c4cc5cc3Oc3ccc(cc3Cl)[C@@H](O[C@H]3C[C@](C)(N)[C@H](O)[C@H](C)O3)[C@@H]3NC(=O)[C@H](NC(=O)[C@@H]5NC(=O)[C@H](CC(N)=O)NC(=O)[C@H](NC(=O)[C@@H](CC(C)C)NC)[C@H](O)c5ccc(c(Cl)c5)O4)c4ccc(O)c(c4)-c4c(O)cc(O)cc4[C@H](C(=O)O)NC3=O)O[C@H](CO)[C@@H](O)[C@@H]2O)O[C@@H](C)[C@H]1O | 0.78 (≈ 0.473 µM) | 0.39 (≈ 0.237 µM) | 1.56 (≈ 0.946 µM) | > 25 | 1.56 (≈ 0.946 µM) | > 25 | 0.5 (≈ 0.303 µM) | 0.5 (≈ 0.303 µM) | 0.5 (≈ 0.303 µM) | 1 (≈ 0.607 µM) | 0.25 (≈ 0.152 µM) | 32 (≈ 19.4 µM) | 0.063 (≈ 0.0382 µM) | 0.125 (≈ 0.0758 µM) |  | 
CN[C@H](CC(C)C)C(=O)N[C@H]1C(=O)N[C@@H](CC(N)=O)C(=O)N[C@H]2C(=O)N[C@H]3C(=O)N[C@H](C(=O)N[C@@H](C(=O)O)c4cc(O)cc(O)c4-c4cc3ccc4O)[C@H](O[C@H]3C[C@](C)(N)[C@H](O)[C@H](C)O3)c3ccc(c(Cl)c3)Oc3cc2cc(c3O[C@@H]2O[C@H](CO)[C@@H](O)[C@H](O)[C@H]2O[C@H]2C[C@](C)(N)[C@H](O)[C@H](C)O2)Oc2ccc(cc2Cl)[C@H]1O | 0.39 (≈ 0.245 µM) | 0.098 (≈ 0.0615 µM) | 0.78 (≈ 0.49 µM) | 3.13 (≈ 1.97 µM) | 0.78 (≈ 0.49 µM) | > 25 | 0.25 (≈ 0.157 µM) | 0.125 (≈ 0.0785 µM) | 0.25 (≈ 0.157 µM) | 0.5 (≈ 0.314 µM) | 0.125 (≈ 0.0785 µM) | 8 (≈ 5.02 µM) | 0.063 (≈ 0.0396 µM) | 0.125 (≈ 0.0785 µM) |  | 
CN[C@H](CC(C)C)C(=O)N[C@H]1C(=O)N[C@@H](CC(N)=O)C(=O)N[C@H]2C(=O)N[C@H]3C(=O)N[C@H](C(=O)N[C@H](C(=O)O)c4cc(O)cc(O)c4-c4cc3ccc4O)[C@H](O)c3ccc(c(Cl)c3)Oc3cc2cc(c3O[C@@H]2O[C@H](CO)[C@@H](O)[C@H](O)[C@H]2O[C@H]2C[C@](C)(N)[C@H](O)[C@H](C)O2)Oc2ccc(cc2Cl)[C@H]1O.Cl [VANCOMYCIN HYDROCHLORIDE] | 0.78 | 0.39 | 3.13 | 6.25 | 6.25 | > 25 |  |  | 1 | 8 | 0.25 | > 32 | 0.125 | 0.25 |  | 
CN[C@H](CC(C)C)C(=O)N[C@H]1C(=O)N[C@@H](CC(N)=O)C(=O)N[C@H]2C(=O)N[C@H]3C(=O)N[C@H](C(=O)N[C@@H](C(=O)O)c4cc(O)cc(O)c4-c4cc3ccc4O)[C@H](O[C@H]3C[C@](C)(N)[C@H](O)[C@H](C)O3)c3ccc(c(Cl)c3)Oc3cc2cc(c3O[C@@H]2O[C@H](CO)[C@@H](O)[C@H](O)[C@H]2O[C@H]2C[C@](C)(NCc3ccc(Cl)cc3)[C@H](O)[C@H](C)O2)Oc2ccc(cc2Cl)[C@H]1O | 3.13 (≈ 1.82 µM) | 1.56 (≈ 0.909 µM) | 3.13 (≈ 1.82 µM) | 3.13 (≈ 1.82 µM) | 1.56 (≈ 0.909 µM) | 12.5 (≈ 7.28 µM) |  |  |  |  |  |  |  |  |  | 
CCCCCCCN[C@@]1(C)C[C@H](O[C@H]2[C@H](Oc3c4cc5cc3Oc3ccc(cc3Cl)[C@@H](O[C@H]3C[C@](C)(N)[C@H](O)[C@H](C)O3)[C@@H]3NC(=O)[C@H](NC(=O)[C@@H]5NC(=O)[C@H](CC(N)=O)NC(=O)[C@H](NC(=O)[C@@H](CC(C)C)NC)[C@H](O)c5ccc(c(Cl)c5)O4)c4ccc(O)c(c4)-c4c(O)cc(O)cc4[C@H](C(=O)O)NC3=O)O[C@H](CO)[C@@H](O)[C@@H]2O)O[C@@H](C)[C@H]1O | 1.56 (≈ 0.923 µM) | 0.78 (≈ 0.461 µM) | 1.56 (≈ 0.923 µM) | > 25 | 1.56 (≈ 0.923 µM) | > 25 |  |  |  |  |  |  |  |  |  | 

Reference: ChEMBL document CHEMBL1909570, “Synthesis and antibacterial activity of N4-mono alkyl derivatives of novel glycopeptide LYV07ww01” (2011)
